Laboratory results reported in patent US10040781B2, “Tank-binding kinase inhibitor compounds” (Gilead Sciences, Inc., priority 2014, dated 2018).
Read-outs that look alike come from different tables or passages of the source.

Tests used:
IKKε = IKKε (Homo sapiens (Human), UniProt Q14164); test: IKKε TR-FRET enzymatic assay; assay type: biochemical; details: read-out: IKKe IC50
hJAK2 = hJAK2 (Homo sapiens (Human), UniProt O60674); test: hJAK2 LANCE TR-FRET enzymatic assay; assay type: biochemical; details: read-out: JAK2 IC50
TBK1 = TBK1 (Homo sapiens (Human), UniProt Q9UHD2); test: TBK1 TR-FRET enzymatic assay;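 note: phosphorylation of a biotinylated Ser/Thr peptide by purified full-length recombinant TBK1, read by TR-FRET after 240 min at 25 °C, IC50 is the geometric mean of at least four runs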
[1] = TR-FRET, 2×Km ATP, geometric mean of minimum four determinations

Chain of IKKε (Q14164 whole entry): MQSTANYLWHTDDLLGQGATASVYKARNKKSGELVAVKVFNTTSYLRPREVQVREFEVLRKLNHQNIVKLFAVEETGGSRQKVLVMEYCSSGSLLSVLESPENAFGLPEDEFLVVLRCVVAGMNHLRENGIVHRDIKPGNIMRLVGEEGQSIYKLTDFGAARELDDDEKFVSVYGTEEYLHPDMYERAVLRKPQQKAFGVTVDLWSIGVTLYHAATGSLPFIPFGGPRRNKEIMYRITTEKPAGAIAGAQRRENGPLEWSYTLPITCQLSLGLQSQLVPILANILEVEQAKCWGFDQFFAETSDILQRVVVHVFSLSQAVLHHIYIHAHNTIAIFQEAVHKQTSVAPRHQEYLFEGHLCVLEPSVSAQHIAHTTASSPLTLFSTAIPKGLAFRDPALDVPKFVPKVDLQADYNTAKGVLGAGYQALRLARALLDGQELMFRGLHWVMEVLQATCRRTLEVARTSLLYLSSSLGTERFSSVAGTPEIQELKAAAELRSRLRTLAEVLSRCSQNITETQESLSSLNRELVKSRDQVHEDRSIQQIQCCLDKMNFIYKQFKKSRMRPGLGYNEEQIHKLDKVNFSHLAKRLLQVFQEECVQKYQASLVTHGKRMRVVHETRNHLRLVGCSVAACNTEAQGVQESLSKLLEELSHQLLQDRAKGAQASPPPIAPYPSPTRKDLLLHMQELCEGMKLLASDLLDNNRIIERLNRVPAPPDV
Chain of hJAK2 (O60674 whole entry): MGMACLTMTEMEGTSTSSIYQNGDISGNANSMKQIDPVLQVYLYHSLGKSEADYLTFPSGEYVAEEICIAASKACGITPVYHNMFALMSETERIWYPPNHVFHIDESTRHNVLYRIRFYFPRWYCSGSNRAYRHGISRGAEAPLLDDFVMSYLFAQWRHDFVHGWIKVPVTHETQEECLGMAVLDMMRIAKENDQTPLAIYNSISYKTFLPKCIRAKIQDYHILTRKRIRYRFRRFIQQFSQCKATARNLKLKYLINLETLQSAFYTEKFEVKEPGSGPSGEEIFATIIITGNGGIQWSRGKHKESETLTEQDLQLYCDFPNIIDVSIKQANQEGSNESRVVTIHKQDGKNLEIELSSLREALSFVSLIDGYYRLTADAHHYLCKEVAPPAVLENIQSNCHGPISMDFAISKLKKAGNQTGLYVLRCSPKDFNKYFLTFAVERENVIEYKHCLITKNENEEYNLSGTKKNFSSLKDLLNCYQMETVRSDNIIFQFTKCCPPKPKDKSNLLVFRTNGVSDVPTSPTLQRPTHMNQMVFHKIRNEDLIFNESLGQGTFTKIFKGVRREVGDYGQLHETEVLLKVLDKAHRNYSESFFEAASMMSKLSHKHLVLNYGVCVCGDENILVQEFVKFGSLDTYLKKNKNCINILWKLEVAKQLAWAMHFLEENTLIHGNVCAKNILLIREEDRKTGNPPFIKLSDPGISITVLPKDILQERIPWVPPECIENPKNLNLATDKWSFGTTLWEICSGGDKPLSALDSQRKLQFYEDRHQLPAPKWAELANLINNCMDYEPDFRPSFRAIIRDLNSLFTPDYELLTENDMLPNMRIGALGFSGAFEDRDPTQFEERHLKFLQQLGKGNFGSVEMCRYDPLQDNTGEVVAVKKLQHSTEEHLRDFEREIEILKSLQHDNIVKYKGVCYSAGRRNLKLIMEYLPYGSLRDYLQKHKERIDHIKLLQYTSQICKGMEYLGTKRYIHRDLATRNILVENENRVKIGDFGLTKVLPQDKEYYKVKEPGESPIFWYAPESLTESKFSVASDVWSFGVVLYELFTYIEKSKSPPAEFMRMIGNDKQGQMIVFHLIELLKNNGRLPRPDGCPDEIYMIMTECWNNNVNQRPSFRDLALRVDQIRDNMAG
Chain of TBK1 (Q9UHD2 whole entry): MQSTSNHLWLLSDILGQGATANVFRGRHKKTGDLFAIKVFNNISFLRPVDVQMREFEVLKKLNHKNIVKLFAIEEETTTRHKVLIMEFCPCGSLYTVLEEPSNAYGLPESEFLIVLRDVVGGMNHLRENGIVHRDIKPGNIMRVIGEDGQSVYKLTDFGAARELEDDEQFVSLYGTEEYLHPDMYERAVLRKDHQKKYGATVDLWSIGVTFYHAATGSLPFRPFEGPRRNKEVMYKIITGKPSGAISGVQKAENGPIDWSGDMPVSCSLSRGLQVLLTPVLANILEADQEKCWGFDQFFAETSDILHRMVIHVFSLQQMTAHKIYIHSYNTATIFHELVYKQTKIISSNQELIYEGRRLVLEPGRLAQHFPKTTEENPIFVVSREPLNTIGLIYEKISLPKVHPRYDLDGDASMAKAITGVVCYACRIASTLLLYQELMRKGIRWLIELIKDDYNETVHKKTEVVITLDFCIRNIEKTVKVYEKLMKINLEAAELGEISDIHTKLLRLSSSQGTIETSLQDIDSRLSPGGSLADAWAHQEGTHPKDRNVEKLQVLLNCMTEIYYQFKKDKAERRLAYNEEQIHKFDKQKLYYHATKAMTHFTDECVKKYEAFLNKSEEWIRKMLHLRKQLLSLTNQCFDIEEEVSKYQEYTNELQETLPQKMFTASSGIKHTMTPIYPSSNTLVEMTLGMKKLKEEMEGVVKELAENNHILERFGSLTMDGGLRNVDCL

| IC50 (IKKε) | IC50 (hJAK2) | IC50 (TBK1) | IC50 (IKKε; [1]) | Structure (SMILES) |
| --- | --- | --- | --- | --- |
| 4 nM | ≥ 1000 nM | 6 nM |  | CC(C)(O)c1ccc(Nc2ncnc(-c3ccc(O[C@H]4CCN(C(=O)CO)C[C@H]4F)c(C#N)c3)n2)cn1 [Example 388, 2-(((3R,4S)-3-fluoro-1-(2-hydroxyacetyl)piperidin-4-yl)oxy)-5-(4-((6-(2-hydroxypropan-2-yl)pyridin-3-yl)amino)-1,3,5-triazin-2-yl)benzonitrile] |
| 3 nM | 648 nM | 4 nM |  | N#Cc1cc(-c2ncnc(Nc3ccc(N4CCN(C5COC5)CC4)cc3)n2)cc(F)c1O[C@H]1CCN(C(=O)CO)C[C@H]1F [Example 329, 3-fluoro-2-(((3R,4S)-3-fluoro-1-(2-hydroxyacetyl)piperidin-4-yl)oxy)-5-(4-((4-(4-(oxetan-3-yl)piperazin-1-yl)phenyl)amino)-1,3,5-triazin-2-yl)benzonitrile] |
| 193 nM | 440 nM | 77 nM |  | C[C@@H]1C[C@@H](Oc2ccc(-c3ncnc(Nc4ccc(N5CCN(C6COC6)CC5)cc4)n3)cc2C#N)CN1C(=O)CO [Example 99, 2-(((3R,5R)-1-(2-hydroxyacetyl)-5-methylpyrrolidin-3-yl)oxy)-5-(4-((4-(4-(oxetan-3-yl)piperazin-1-yl)phenyl)amino)-1,3,5-triazin-2-yl)benzonitrile] |
| 1 nM | ≥ 1000 nM | 2 nM |  | C[C@H](O)C(=O)N1CC[C@H](Oc2ccc(-c3ncnc(Nc4ccc(N5CC6COCC6C5)cc4)n3)cc2C#N)[C@H](F)C1 (stereo partly drawn) [Example 317, 2-(((3R,4S)-3-fluoro-1-((S)-2-hydroxypropanoyl)piperidin-4-yl)oxy)-5-(4-((4-(tetrahydro-1H-furo[3,4-c]pyrrol-5(3H)-yl)phenyl)amino)-1,3,5-triazin-2-yl)benzonitrile] |
| 4 nM | > 1000 nM | 1 nM |  | N#Cc1cc(-c2ncnc(Nc3ccc(N4CCN(C5COC5)CC4)cc3)n2)ccc1OC1CCSCC1 [Example 19, 5-(4-((4-(4-(oxetan-3-yl)piperazin-1-yl)phenyl)amino)-1,3,5-triazin-2-yl)-2-((tetrahydro-2H-thiopyran-4-yl)oxy)benzonitrile] |
| 14 nM | 811 nM | 2 nM |  | CC(C)(O)c1cccc(Nc2ncnc(-c3ccc(OC4CCOCC4)c(C#N)c3)n2)c1 [Example 47, 5-(4-((3-(2-hydroxypropan-2-yl)phenyl)amino)-1,3,5-triazin-2-yl)-2-((tetrahydro-2H-pyran-4-yl)oxy)benzonitrile] |
|  | 699 nM | 3 nM | 1 nM | N#Cc1cc(-c2ncnc(Nc3ccc(C4CCN(C5COC5)CC4)cc3)n2)ccc1O[C@H]1CCN(C(=O)[C@@H](O)CO)C[C@H]1F [Example 509, 2-(((3R,4S)-1-((S)-2,3-dihydroxypropanoyl)-3-fluoropiperidin-4-yl)oxy)-5-(4-((4-(1-(oxetan-3-yl)piperidin-4-yl)phenyl)amino)-1,3,5-triazin-2-yl)benzonitrile] |
| 1 nM | 496 nM | 2 nM |  | C[C@H](O)C(=O)N1CC[C@H](Oc2ccc(-c3ncnc(Nc4ccc(N5CC(C)(O)C5)cc4)n3)cc2C#N)[C@H](F)C1 [Example 342, 2-(((3R,4S)-3-fluoro-1-((S)-2-hydroxypropanoyl)piperidin-4-yl)oxy)-5-(4-((4-(3-hydroxy-3-methylazetidin-1-yl)phenyl)amino)-1,3,5-triazin-2-yl)benzonitrile] |
|  | 904 nM | 3 nM | 3 nM | C[C@H]1CN(c2ccc(Nc3ncnc(-c4ccc(O[C@H]5CCN(C(=O)[C@@H]6CCC(=O)N6)C[C@H]5F)c(C#N)c4)n3)cc2)CCN1C1COC1 [Example 535, 2-(((3R,4S)-3-fluoro-1-((S)-5-oxopyrrolidine-2-carbonyl)piperidin-4-yl)oxy)-5-(4-((4-((S)-3-methyl-4-(oxetan-3-yl)piperazin-1-yl)phenyl)amino)-1,3,5-triazin-2-yl)benzonitrile] |
| 83 nM | > 1000 nM | 55 nM |  | Cn1ccc(Nc2ncnc(-c3ccc(OC4CCOCC4)c(C#N)c3)n2)n1 [Example 59, 5-(4-((1-methyl-1H-pyrazol-3-yl)amino)-1,3,5-triazin-2-yl)-2-((tetrahydro-2H-pyran-4-yl)oxy)benzonitrile] |
| 4 nM | 342 nM | 3 nM |  | N#Cc1cc(-c2ncnc(Nc3ccc(N4CCN(C5COC5)CC4)cc3)n2)ccc1O[C@H]1CCN(C(=O)[C@@H]2CCCC(=O)N2)C[C@H]1F [Example 117, 2-(((3R,4S)-3-fluoro-1-((S)-6-oxopiperidine-2-carbonyl)piperidin-4-yl)oxy)-5-(4-((4-(4-(oxetan-3-yl)piperazin-1-yl)phenyl)amino)-1,3,5-triazin-2-yl)benzonitrile] |
| 17 nM | 317 nM | 11 nM |  | C[C@H](O)C(=O)N1CC(F)C(Oc2ccc(-c3ncnc(Nc4ccc(N5CCN(C6COC6)CC5)cc4)n3)cc2C#N)C(C)(C)C1 (stereo partly drawn) [Example 180, 2-((5-fluoro-1-((S)-2-hydroxypropanoyl)-3,3-dimethylpiperidin-4-yl)oxy)-5-(4-((4-(4-(oxetan-3-yl)piperazin-1-yl)phenyl)amino)-1,3,5-triazin-2-yl)benzonitrile] |
| 101 nM | 269 nM | 35 nM |  | N#Cc1cc(-c2ncnc(Nc3ccc(N4CCN(C5COC5)CC4)cc3)n2)ccc1OC1COC1 [Example 5, 5-(4-((4-(4-(oxetan-3-yl)piperazin-1-yl)phenyl)amino)-1,3,5-triazin-2-yl)-2-(oxetan-3-yloxy)benzonitrile] |
|  | ≥ 1000 nM | 6 nM | 12 nM | N#Cc1cc(-c2ncnc(Nc3ccc(N4CCN(C5COC5)CC4)cc3)n2)ccc1O[C@H]1CCN(C(=O)N2CCCC2)C[C@H]1F [Example 424, 2-(((3R,4S)-3-fluoro-1-(pyrrolidine-1-carbonyl)piperidin-4-yl)oxy)-5-(4-((4-(4-(oxetan-3-yl)piperazin-1-yl)phenyl)amino)-1,3,5-triazin-2-yl)benzonitrile] |
| 4 nM | > 1000 nM | 2 nM |  | N#Cc1cc(-c2ncnc(Nc3ccc(C4CCN(C5COC5)CC4)cc3)n2)ccc1OC1CCOCC1 [Example 54, 5-(4-((4-(1-(oxetan-3-yl)piperidin-4-yl)phenyl)amino)-1,3,5-triazin-2-yl)-2-((tetrahydro-2H-pyran-4-yl)oxy)benzonitrile] |
| 1 nM | 317 nM | 2 nM |  | N#Cc1cc(-c2ncnc(Nc3cnn(CC(F)F)c3)n2)ccc1O[C@H]1CCN(C(=O)CO)C[C@H]1F [Example 361, 5-(4-((1-(2,2-difluoroethyl)-1H-pyrazol-4-yl)amino)-1,3,5-triazin-2-yl)-2-(((3R,4S)-3-fluoro-1-(2-hydroxyacetyl)piperidin-4-yl)oxy)benzonitrile] |
| 3 nM | 564 nM | 9 nM |  | C[C@H](O)C(=O)N1CC[C@H](Oc2ccc(-c3ncnc(Nc4ccc(N5CCO[C@@H](C(N)=O)C5)cc4)n3)cc2C#N)[C@H](F)C1 [Example 315, (R)-4-(4-((4-(3-cyano-4-(((3R,4S)-3-fluoro-1-((S)-2-hydroxypropanoyl)piperidin-4-yl)oxy)phenyl)-1,3,5-triazin-2-yl)amino)phenyl)morpholine-2-carboxamide] |
|  | 15 nM | 65 nM | 197 nM | NC(=O)c1cc(-c2ncnc(Nc3ccc(N4CCN(C5COC5)CC4)cc3)n2)ccc1OC1CNC(=O)C(F)(F)C1 (stereo not drawn) [Example 447, 2-((5,5-difluoro-6-oxopiperidin-3-yl)oxy)-5-(4-((4-(4-(oxetan-3-yl)piperazin-1-yl)phenyl)amino)-1,3,5-triazin-2-yl)benzamide] |
| 10 nM | > 1000 nM | 6 nM |  | C[C@H](O)C(=O)N1CCC(Oc2ccc(-c3ncnc(Nc4ccc(C5CCN(C6COC6)CC5)cc4)n3)cc2C#N)CC1 [Example 23, (S)-2-((1-(2-hydroxypropanoyl)piperidin-4-yl)oxy)-5-(4-((4-(1-(oxetan-3-yl)piperidin-4-yl)phenyl)amino)-1,3,5-triazin-2-yl)benzonitrile] |
| ≥ 1000 nM | ≥ 1000 nM | 1000 nM |  | N#Cc1cc(-c2ncnc(Nc3ccc(N4CCN(C5COC5)CC4)cc3F)n2)ccc1O[C@H]1CCN(C(=O)[C@@H]2CCC(=O)N2)C[C@H]1F [Example 374, 2-(((3R,4S)-3-fluoro-1-((S)-5-oxopyrrolidine-2-carbonyl)piperidin-4-yl)oxy)-5-(4-((2-fluoro-4-(4-(oxetan-3-yl)piperazin-1-yl)phenyl)amino)-1,3,5-triazin-2-yl)benzonitrile] |
| 1 nM | ≥ 1000 nM | 4 nM |  | C[C@H](O)C(=O)N1CC[C@H](Oc2ccc(-c3ncnc(Nc4ccc([C@H]5CCCN5)cc4)n3)cc2C#N)[C@H](F)C1 [Example 615, 2-(((3R,4S)-3-fluoro-1-((S)-2-hydroxypropanoyl)piperidin-4-yl)oxy)-5-(4-((4-((R)-pyrrolidin-2-yl)phenyl)amino)-1,3,5-triazin-2-yl)benzonitrile] |
|  | 694 nM | 17 nM | 79 nM | N#CCCC(=O)N1CC[C@H](Oc2ccc(-c3ncnc(Nc4ccc(N5CCN(C6COC6)CC5)cc4)n3)cc2C#N)[C@H](F)C1 [Example 417, 2-(((3R,4S)-1-(3-cyanopropanoyl)-3-fluoropiperidin-4-yl)oxy)-5-(4-((4-(4-(oxetan-3-yl)piperazin-1-yl)phenyl)amino)-1,3,5-triazin-2-yl)benzonitrile] |
| 4 nM | 333 nM | 2 nM |  | N#Cc1cc(-c2ncnc(Nc3ccc(N4CCO[C@@H](CO)C4)cc3)n2)ccc1OC1CCN(C(=O)CO)CC1 [Example 227, (R)-2-((1-(2-hydroxyacetyl)piperidin-4-yl)oxy)-5-(4-((4-(2-(hydroxymethyl)morpholino)phenyl)amino)-1,3,5-triazin-2-yl)benzonitrile] |
